Data published in patent publication US4359583A, “Antibiotics TM-531 B and TM-531 C” (Taisho Pharmaceutical Co., Ltd., priority 1980, dated 1982).
“Also recorded” adds a separate entry of the source.

How the values were obtained:
[1] = Improving the feed efficiency when incorporated into feeds; type: in vivo; settings: incorporated into feeds for poultry, hogs, etc.
[2] = tested on: plant pathogenic microorganisms; experiment: Physiological properties: growth inhibition; type: cell-based; settings: in words
[3] = tested on: protozoa as hog dysentery, coccidium, toxoplasma and trypanosoma; experiment: Physiological properties: growth inhibition; type: cell-based; settings: in words
yeasts = experiment: Physiological properties: growth inhibition; type: cell-based; settings: in words
gram-negative bacteria = experiment: Physiological properties: growth inhibition; type: cell-based; settings: in words
[4] = Classification of Nature (basic, acidic or neutral); type: physicochemical; settings: measured as the sodium salt
Solubility in solvents = type: physicochemical; settings: measured as the sodium salt
[5] = tested on: Staphylococcus aureus TPR-23; experiment: MIC, antibacterial activity on heart infusion agar; type: cell-based; settings: inoculum 10^6 CFU/ml
Protocol: (§1) Using heart infusion agar as a medium the MIC (minimum inhibition concentration) of Antibiotics TM-531 B and TM-531 C against various bacteria were measured using an inoculum size of 10^6 CFU/ml, to determine its antibacterial activity.

[6] = tested on: Staphylococcus aureus FDA 209P; experiment: MIC, antibacterial activity on heart infusion agar; type: cell-based; settings: inoculum 10^6 CFU/ml
Protocol: as §1

[7] = tested on: Escherichia coli NIHJ C-2; experiment: MIC, antibacterial activity on heart infusion agar; type: cell-based; settings: inoculum 10^6 CFU/ml
Protocol: as §1

[8] = tested on: Staphylococcus aureus Smith; experiment: MIC, antibacterial activity on heart infusion agar; type: cell-based; settings: inoculum 10^6 CFU/ml
Protocol: as §1

[9] = tested on: Staphylococcus epidermidis TPR-25; experiment: MIC, antibacterial activity on heart infusion agar; type: cell-based; settings: inoculum 10^6 CFU/ml
Protocol: as §1

[10] = tested on: Pseudomonas aeruginosa IID 1052; experiment: MIC, antibacterial activity on heart infusion agar; type: cell-based; settings: inoculum 10^6 CFU/ml
Protocol: as §1

[11] = tested on: Streptococcus faecalis ATCC 8043; experiment: MIC, antibacterial activity on heart infusion agar; type: cell-based; settings: inoculum 10^6 CFU/ml
Protocol: as §1

[12] = tested on: Staphylococcus epidermidis IID 866; experiment: MIC, antibacterial activity on heart infusion agar; type: cell-based; settings: inoculum 10^6 CFU/ml
Protocol: as §1

Bacillus licheniformis = experiment: MIC, antibacterial activity on heart infusion agar; type: cell-based; settings: inoculum 10^6 CFU/ml
Protocol: as §1

[13] = tested on: Bacillus subtilis ATCC 6633; experiment: MIC, antibacterial activity on heart infusion agar; type: cell-based; settings: inoculum 10^6 CFU/ml
Protocol: as §1

Micrococcus luteus NIHJ = experiment: MIC, antibacterial activity on heart infusion agar; type: cell-based; settings: inoculum 10^6 CFU/ml
Protocol: as §1

gram-positive bacteria = experiment: Physiological properties: growth inhibition; type: cell-based; settings: in words

CC/C=C(\C[C@@]1(C)COC2(CC[C@@](C)([C@H]3C[C@H](O[C@@H]4C[C@@H](O)[C@H](OC)[C@@H](C)O4)[C@@H](C)C4(O[C@@H](C5O[C@@](O)(CO)[C@H](C)C[C@@H]5C)C[C@H]4C)O3)O2)C[C@@H]1O)C(=O)C(C)CC(C)C(=O)[O-].[Na+] (some centres unmarked) [TM-531 C]
improving the feed efficiency [1]: effective | growth inhibition of plant pathogenic microorganisms [2]: inhibits the growth; also recorded: excellent growth inhibitory activity | growth inhibition of protozoa [3]: inhibits the growth; also recorded: excellent growth inhibitory activity | activity against yeasts (yeasts): ineffective | activity against gram-negative bacteria (gram-negative bacteria): ineffective | Classification of Nature (basic, acidic or neutral) [4]: Acidic | Solubility in organic solvents (Solubility in solvents; methanol, ethanol, acetone, ethyl acetate, n-hexane, chloroform and benzene): soluble | Solubility in water (Solubility in solvents; water): Insoluble | MIC (minimum inhibition concentration) [5]: 50 mg/L | MIC (minimum inhibition concentration) [6]: 12.5 mg/L | MIC (minimum inhibition concentration) [7]: > 100 mg/L | MIC (minimum inhibition concentration) [8]: 25 mg/L | MIC (minimum inhibition concentration) [9]: 25 mg/L | MIC (minimum inhibition concentration) [10]: > 100 mg/L | MIC (minimum inhibition concentration) [11]: 12.5 mg/L | MIC (minimum inhibition concentration) [12]: 25 mg/L | MIC (minimum inhibition concentration) (Bacillus licheniformis): 12.5 mg/L | MIC (minimum inhibition concentration) [13]: 25 mg/L | MIC (minimum inhibition concentration) (Micrococcus luteus NIHJ): 12.5 mg/L | growth inhibition of gram-positive bacteria (gram-positive bacteria): inhibits the growth; also recorded: excellent growth inhibitory activity
